Measured values as given in patent US9828360B2 (Array BioPharma Inc., priority 2012, dated 2017).

Columns and labels:
Assay in all cases: KinaseProfiler off-target kinase profiling
Type in all cases: biochemical
Settings in all cases: 10 μM, ATP near Km
AKT2 = molecular target: T1, AKT2 (Homo sapiens, UniProt P31751)
T1 construct: purchased Millipore, Inc. (KinaseProfiler service)
Experimental: (§1) A representative compound of the invention (Example 48) was tested for off-target kinase activity at a concentration of 10 μM by Millipore, Inc. in their KinaseProfiler™ service against all the kinases available in their full kinase panel. The compound was run in duplicate at a concentration of ATP near the Km for each individual kinase according to Millipore's specifications. The results are shown in Table B. Data are reported as percent of control (POC) and are the average of the two replicates.

ALK = molecular target: T2, ALK (Homo sapiens, UniProt Q9UM73)
T2 construct: purchased Millipore, Inc. (KinaseProfiler service)
Experimental: as §1

BrSK1 = molecular target: T3, BrSK1 (Homo sapiens, UniProt Q8TDC3)
T3 construct: purchased Millipore, Inc. (KinaseProfiler service)
Experimental: as §1

BrSK2 = molecular target: T4, BrSK2 (Homo sapiens, UniProt Q8IWQ3)
T4 construct: purchased Millipore, Inc. (KinaseProfiler service)
Experimental: as §1

CAMK1 = molecular target: T5, CAMK1 (Homo sapiens, UniProt Q14012)
T5 construct: purchased Millipore, Inc. (KinaseProfiler service)
Experimental: as §1

CAMK2d = molecular target: T6, CAMK2d (Homo sapiens, UniProt Q13557)
T6 construct: purchased Millipore, Inc. (KinaseProfiler service)
Experimental: as §1

CDK3/cyclinE = molecular target: T7, CDK3/cyclinE (Homo sapiens, UniProt Q00526)
T7 construct: purchased Millipore, Inc. (KinaseProfiler service)
Experimental: as §1

CDK5/p25 = molecular target: T8, CDK5/p25 (Homo sapiens, UniProt Q00535)
T8 construct: purchased Millipore, Inc. (KinaseProfiler service)
Experimental: as §1

CHK2 = molecular target: T9, CHK2 (Homo sapiens, UniProt O96017)
T9 construct: purchased Millipore, Inc. (KinaseProfiler service)
Experimental: as §1

DDR2 = molecular target: T10, DDR2 (Homo sapiens, UniProt Q16832)
T10 construct: purchased Millipore, Inc. (KinaseProfiler service)
T10 sequence (Q16832 22-855): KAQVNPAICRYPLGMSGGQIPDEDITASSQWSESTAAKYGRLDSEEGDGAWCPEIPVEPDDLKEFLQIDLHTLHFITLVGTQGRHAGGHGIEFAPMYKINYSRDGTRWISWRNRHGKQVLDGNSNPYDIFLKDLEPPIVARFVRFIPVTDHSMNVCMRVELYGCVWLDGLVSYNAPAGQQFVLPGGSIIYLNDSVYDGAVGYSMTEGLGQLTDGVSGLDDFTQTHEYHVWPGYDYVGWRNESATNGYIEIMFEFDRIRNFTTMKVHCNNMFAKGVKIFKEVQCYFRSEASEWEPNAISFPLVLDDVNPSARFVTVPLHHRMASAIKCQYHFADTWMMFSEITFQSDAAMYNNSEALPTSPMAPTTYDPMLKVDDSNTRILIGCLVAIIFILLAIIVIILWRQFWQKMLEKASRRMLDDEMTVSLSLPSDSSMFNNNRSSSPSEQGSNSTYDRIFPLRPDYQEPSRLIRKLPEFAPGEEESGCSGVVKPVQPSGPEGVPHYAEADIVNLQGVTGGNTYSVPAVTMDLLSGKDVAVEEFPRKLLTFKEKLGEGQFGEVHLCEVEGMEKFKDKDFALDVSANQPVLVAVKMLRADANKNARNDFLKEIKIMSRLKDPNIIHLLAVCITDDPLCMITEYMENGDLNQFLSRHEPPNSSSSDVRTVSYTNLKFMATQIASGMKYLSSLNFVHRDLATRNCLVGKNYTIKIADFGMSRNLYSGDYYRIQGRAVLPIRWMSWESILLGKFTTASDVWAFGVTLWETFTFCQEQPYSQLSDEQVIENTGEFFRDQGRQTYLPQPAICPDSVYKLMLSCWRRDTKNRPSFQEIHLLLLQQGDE
Experimental: as §1

DRAK1 = molecular target: T11, DRAK1 (Homo sapiens, UniProt Q9UEE5)
T11 construct: purchased Millipore, Inc. (KinaseProfiler service)
Experimental: as §1

ERK1 = molecular target: T12, ERK1 (Homo sapiens, UniProt P27361)
T12 construct: purchased Millipore, Inc. (KinaseProfiler service)
T12 sequence (P27361 whole entry): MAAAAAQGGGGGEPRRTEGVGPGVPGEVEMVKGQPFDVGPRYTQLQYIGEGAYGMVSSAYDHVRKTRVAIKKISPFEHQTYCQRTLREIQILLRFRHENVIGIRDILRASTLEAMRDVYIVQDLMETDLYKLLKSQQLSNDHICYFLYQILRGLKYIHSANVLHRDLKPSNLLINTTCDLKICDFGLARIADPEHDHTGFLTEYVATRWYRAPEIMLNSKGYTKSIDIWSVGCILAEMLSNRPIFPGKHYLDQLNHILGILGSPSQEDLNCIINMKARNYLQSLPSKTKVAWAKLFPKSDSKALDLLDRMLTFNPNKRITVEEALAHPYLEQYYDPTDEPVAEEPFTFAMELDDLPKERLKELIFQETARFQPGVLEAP
Experimental: as §1

EphB1 = molecular target: T13, EphB1 (Homo sapiens, UniProt P54762)
T13 construct: purchased Millipore, Inc. (KinaseProfiler service)
Experimental: as §1

Fes = molecular target: T14, Fes (Homo sapiens, UniProt P07332)
T14 construct: purchased Millipore, Inc. (KinaseProfiler service)
Experimental: as §1

GSK3alpha = molecular target: T15, GSK3alpha (Homo sapiens, UniProt P49840)
T15 construct: purchased Millipore, Inc. (KinaseProfiler service)
Experimental: as §1

IRAK4 = molecular target: T16, IRAK4 (Homo sapiens, UniProt Q9NWZ3)
T16 construct: purchased Millipore, Inc. (KinaseProfiler service)
Experimental: as §1

JAK2 = molecular target: T17, JAK2 (Homo sapiens, UniProt O60674)
T17 construct: purchased Millipore, Inc. (KinaseProfiler service)
T17 sequence (O60674 whole entry): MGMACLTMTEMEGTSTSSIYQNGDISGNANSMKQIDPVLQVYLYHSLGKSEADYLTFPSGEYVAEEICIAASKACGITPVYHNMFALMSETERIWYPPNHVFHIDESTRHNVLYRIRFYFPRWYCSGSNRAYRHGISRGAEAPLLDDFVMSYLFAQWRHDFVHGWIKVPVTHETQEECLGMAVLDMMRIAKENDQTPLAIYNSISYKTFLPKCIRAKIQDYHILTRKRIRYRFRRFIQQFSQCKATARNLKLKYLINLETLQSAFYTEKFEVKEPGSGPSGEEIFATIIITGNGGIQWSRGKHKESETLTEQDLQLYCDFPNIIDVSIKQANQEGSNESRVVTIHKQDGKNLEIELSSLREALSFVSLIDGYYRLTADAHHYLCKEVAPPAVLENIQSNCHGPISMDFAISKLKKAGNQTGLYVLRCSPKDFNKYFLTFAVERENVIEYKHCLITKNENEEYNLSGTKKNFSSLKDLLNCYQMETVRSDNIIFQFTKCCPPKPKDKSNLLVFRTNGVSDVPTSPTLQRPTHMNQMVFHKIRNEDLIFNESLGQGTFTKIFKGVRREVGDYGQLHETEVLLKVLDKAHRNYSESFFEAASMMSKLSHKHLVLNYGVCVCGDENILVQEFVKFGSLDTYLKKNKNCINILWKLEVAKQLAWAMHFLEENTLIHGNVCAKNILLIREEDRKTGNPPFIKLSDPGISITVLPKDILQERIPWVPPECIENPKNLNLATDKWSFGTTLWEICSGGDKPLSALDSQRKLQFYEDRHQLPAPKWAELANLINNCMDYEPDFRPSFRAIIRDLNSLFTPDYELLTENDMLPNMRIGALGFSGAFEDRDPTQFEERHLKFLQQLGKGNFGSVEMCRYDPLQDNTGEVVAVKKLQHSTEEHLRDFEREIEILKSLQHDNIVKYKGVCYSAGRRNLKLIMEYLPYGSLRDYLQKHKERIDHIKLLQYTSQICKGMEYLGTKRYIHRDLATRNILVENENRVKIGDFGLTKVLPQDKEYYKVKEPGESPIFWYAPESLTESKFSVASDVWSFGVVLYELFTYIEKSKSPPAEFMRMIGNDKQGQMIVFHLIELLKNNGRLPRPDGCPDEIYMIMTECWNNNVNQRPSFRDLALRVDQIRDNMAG
Experimental: as §1

MAP3K5 = molecular target: T18, MAP3K5 (Homo sapiens, UniProt Q99683)
T18 construct: purchased Millipore, Inc. (KinaseProfiler service)
Experimental: as §1

MEK1 = molecular target: T19, MEK1 (Homo sapiens, UniProt Q02750)
T19 construct: purchased Millipore, Inc. (KinaseProfiler service)
Experimental: as §1

NLK = molecular target: T20, NLK (Homo sapiens, UniProt Q9UBE8)
T20 construct: purchased Millipore, Inc. (KinaseProfiler service)
Experimental: as §1

PAK6 = molecular target: T21, PAK6 (Homo sapiens, UniProt Q9NQU5)
T21 construct: purchased Millipore, Inc. (KinaseProfiler service)
Experimental: as §1

PKAC-alpha = molecular target: T22, PKAC-alpha (Homo sapiens, UniProt P17612)
T22 construct: purchased Millipore, Inc. (KinaseProfiler service)
Experimental: as §1

PKCgamma = molecular target: T23, PKCgamma (Homo sapiens, UniProt P05129)
T23 construct: purchased Millipore, Inc. (KinaseProfiler service)
Experimental: as §1

PKD2 = molecular target: T24, PKD2 (Homo sapiens, UniProt Q9BZL6)
T24 construct: purchased Millipore, Inc. (KinaseProfiler service)
Experimental: as §1

PTK6 = molecular target: T25, PTK6 (Homo sapiens, UniProt Q13882)
T25 construct: purchased Millipore, Inc. (KinaseProfiler service)
Experimental: as §1

Pim-3 = molecular target: T26, Pim-3 (Homo sapiens, UniProt Q86V86)
T26 construct: purchased Millipore, Inc. (KinaseProfiler service)
Experimental: as §1

Plk3 = molecular target: T27, Plk3 (Homo sapiens, UniProt Q9H4B4)
T27 construct: purchased Millipore, Inc. (KinaseProfiler service)
Experimental: as §1

PrKX = molecular target: T28, PrKX (Homo sapiens, UniProt P51817)
T28 construct: purchased Millipore, Inc. (KinaseProfiler service)
Experimental: as §1

Ron = molecular target: T29, Ron (Homo sapiens, UniProt Q04912)
T29 construct: purchased Millipore, Inc. (KinaseProfiler service)
Experimental: as §1

Ros = molecular target: T30, Ros (Homo sapiens, UniProt P08922)
T30 construct: purchased Millipore, Inc. (KinaseProfiler service)
Experimental: as §1

Rsk1 = molecular target: T31, Rsk1 (Homo sapiens, UniProt Q15418)
T31 construct: purchased Millipore, Inc. (KinaseProfiler service)
Experimental: as §1

SRC = molecular target: T32, SRC (Homo sapiens, UniProt P12931)
T32 construct: purchased Millipore, Inc. (KinaseProfiler service)
Experimental: as §1

STK33 = molecular target: T33, STK33 (Homo sapiens, UniProt Q9BYT3)
T33 construct: purchased Millipore, Inc. (KinaseProfiler service)
Experimental: as §1

TAO1 = molecular target: T34, TAO1 (Homo sapiens, UniProt Q7L7X3)
T34 construct: purchased Millipore, Inc. (KinaseProfiler service)
T34 sequence (Q7L7X3 whole entry): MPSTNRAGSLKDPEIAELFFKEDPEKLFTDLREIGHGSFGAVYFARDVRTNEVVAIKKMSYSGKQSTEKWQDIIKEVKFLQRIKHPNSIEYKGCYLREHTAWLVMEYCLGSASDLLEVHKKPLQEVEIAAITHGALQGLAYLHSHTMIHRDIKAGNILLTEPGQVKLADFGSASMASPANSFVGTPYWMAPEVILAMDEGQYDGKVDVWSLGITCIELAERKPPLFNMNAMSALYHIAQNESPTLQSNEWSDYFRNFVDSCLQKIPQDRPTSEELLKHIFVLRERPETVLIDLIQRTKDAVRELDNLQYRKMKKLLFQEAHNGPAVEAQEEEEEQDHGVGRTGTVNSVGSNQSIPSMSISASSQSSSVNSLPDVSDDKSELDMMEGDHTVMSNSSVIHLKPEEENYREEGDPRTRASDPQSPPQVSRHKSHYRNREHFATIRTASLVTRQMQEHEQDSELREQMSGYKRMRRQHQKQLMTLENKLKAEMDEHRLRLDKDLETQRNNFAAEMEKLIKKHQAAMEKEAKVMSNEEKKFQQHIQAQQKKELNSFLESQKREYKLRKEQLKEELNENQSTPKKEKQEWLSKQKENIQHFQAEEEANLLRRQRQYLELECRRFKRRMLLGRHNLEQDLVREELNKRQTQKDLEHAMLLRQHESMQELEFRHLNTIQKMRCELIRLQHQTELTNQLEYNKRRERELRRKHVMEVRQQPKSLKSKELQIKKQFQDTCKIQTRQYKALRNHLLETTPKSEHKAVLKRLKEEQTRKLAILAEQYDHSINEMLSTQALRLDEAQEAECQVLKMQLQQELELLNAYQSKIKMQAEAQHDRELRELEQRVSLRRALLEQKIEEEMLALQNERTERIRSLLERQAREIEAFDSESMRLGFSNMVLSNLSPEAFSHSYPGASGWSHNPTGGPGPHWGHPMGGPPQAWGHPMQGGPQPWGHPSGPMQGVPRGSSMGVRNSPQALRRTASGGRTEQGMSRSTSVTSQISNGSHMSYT
Experimental: as §1

TAO2 = molecular target: T35, TAO2 (Homo sapiens, UniProt Q9UL54)
T35 construct: purchased Millipore, Inc. (KinaseProfiler service)
Experimental: as §1

TBK1 = molecular target: T36, TBK1 (Homo sapiens, UniProt Q9UHD2)
T36 construct: purchased Millipore, Inc. (KinaseProfiler service)
Experimental: as §1

TEC Activated = molecular target: T37, TEC Activated (Homo sapiens, UniProt P42680)
T37 construct: purchased Millipore, Inc. (KinaseProfiler service)
Experimental: as §1

ULK2 = molecular target: T38, ULK2 (Homo sapiens, UniProt Q8IYT8)
T38 construct: purchased Millipore, Inc. (KinaseProfiler service)
T38 sequence (Q8IYT8 whole entry): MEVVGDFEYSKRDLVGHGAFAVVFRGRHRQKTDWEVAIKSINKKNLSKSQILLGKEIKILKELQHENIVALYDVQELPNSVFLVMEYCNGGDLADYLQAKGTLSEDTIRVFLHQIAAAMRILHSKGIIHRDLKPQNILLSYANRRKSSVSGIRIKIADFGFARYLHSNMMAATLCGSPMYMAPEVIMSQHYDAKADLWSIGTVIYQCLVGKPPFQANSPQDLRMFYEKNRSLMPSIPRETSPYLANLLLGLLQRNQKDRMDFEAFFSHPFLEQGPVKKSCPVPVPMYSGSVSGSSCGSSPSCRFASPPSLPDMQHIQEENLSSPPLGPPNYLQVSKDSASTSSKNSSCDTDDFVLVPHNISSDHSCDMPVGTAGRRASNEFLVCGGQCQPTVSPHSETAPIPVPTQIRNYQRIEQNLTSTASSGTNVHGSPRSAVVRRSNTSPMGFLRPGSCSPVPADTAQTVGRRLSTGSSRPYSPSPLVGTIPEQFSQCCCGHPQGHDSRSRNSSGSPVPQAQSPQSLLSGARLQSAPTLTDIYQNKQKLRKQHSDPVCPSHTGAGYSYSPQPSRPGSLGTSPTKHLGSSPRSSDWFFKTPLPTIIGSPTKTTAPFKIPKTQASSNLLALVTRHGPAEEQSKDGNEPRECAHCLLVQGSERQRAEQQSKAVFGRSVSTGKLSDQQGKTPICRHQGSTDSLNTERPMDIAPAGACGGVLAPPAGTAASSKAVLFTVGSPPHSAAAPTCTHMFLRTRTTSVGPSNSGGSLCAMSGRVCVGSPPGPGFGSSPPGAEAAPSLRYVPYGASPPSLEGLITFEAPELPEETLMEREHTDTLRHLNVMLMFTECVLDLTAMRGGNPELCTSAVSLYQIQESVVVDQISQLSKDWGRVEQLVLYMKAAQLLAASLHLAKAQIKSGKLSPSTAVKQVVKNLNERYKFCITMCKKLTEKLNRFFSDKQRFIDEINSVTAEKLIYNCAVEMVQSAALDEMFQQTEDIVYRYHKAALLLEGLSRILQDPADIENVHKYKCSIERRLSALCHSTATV
Experimental: as §1

ULK3 = molecular target: T39, ULK3 (Homo sapiens, UniProt Q6PHR2)
T39 construct: purchased Millipore, Inc. (KinaseProfiler service)
Experimental: as §1

VRK2 = molecular target: T40, VRK2 (Homo sapiens, UniProt Q86Y07)
T40 construct: purchased Millipore, Inc. (KinaseProfiler service)
T40 sequence (Q86Y07 whole entry): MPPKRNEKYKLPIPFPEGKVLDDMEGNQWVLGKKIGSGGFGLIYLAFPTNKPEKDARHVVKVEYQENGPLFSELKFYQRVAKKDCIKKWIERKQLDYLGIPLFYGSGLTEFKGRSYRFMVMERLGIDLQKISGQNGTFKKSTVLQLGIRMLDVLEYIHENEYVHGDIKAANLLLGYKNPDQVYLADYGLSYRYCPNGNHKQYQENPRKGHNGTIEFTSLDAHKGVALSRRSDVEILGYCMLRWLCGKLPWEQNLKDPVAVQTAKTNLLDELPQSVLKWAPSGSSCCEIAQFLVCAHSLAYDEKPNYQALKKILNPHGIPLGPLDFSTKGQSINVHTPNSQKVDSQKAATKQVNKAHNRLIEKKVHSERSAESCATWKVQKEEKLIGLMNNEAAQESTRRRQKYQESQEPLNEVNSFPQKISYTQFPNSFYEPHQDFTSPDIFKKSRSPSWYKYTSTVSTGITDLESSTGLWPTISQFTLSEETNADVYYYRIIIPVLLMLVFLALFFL
Experimental: as §1

p38gamma = molecular target: T41, p38gamma (Homo sapiens, UniProt P53778)
T41 construct: purchased Millipore, Inc. (KinaseProfiler service)
Experimental: as §1

Structure (SMILES): COCCN1C[C@@H](NC(=O)Nc2sc(C(C)C)nc2-c2ccccc2)[C@H](c2ccccc2)C1 [Example 48, 1-(2-isopropyl-4-phenylthiazol-5-yl)-3-((3S,4R)-1-(2-methoxyethyl)-4-phenylpyrrolidin-3-yl)urea]
- Avg POC (AKT2): 148% of control
- Avg POC (ALK): 125% of control
- Avg POC (BrSK1): 123.5% of control
- Avg POC (BrSK2): 119.5% of control
- Avg POC (CAMK1): 104.5% of control
- Avg POC (CAMK2d): 99% of control
- Avg POC (CDK3/cyclinE): 99.5% of control
- Avg POC (CDK5/p25): 110.5% of control
- Avg POC (CHK2): 107.5% of control
- Avg POC (DDR2): 101.5% of control
- Avg POC (DRAK1): 104% of control
- Avg POC (ERK1): 100% of control
- Avg POC (EphB1): 107.5% of control
- Avg POC (Fes): 86.5% of control
- Avg POC (GSK3alpha): 120.5% of control
- Avg POC (IRAK4): 88% of control
- Avg POC (JAK2): 123.5% of control
- Avg POC (MAP3K5): 102.5% of control
- Avg POC (MEK1): 100% of control
- Avg POC (NLK): 108.5% of control
- Avg POC (PAK6): 94% of control
- Avg POC (PKAC-alpha): 98.5% of control
- Avg POC (PKCgamma): 93.5% of control
- Avg POC (PKD2): 115.5% of control
- Avg POC (PTK6): 99.5% of control
- Avg POC (Pim-3): 140.5% of control
- Avg POC (Plk3): 113.5% of control
- Avg POC (PrKX): 122% of control
- Avg POC (Ron): 105.5% of control
- Avg POC (Ros): 111% of control
- Avg POC (Rsk1): 121% of control
- Avg POC (SRC): 124% of control
- Avg POC (STK33): 110% of control
- Avg POC (TAO1): 101% of control
- Avg POC (TAO2): 100.5% of control
- Avg POC (TBK1): 96.5% of control
- Avg POC (TEC Activated): 94% of control
- Avg POC (ULK2): 98.5% of control
- Avg POC (ULK3): 100% of control
- Avg POC (VRK2): 98% of control
- Avg POC (p38gamma): 120.5% of control
